{"source": "patent US4292319A", "about": "“Antiphlogistic pharmaceutical compositions and method of use” (Boehringer Ingelheim GmbH, priority 1977, dated 1981)", "test_system": "gastro-intestinal side-effects caused by non-steroidal antiphlogistics", "experiment": "Clinical tests of suppression of gastro-intestinal side-effects by pirenzepine", "type": "in vivo", "data": [{"smiles": "CN1CCN(CC(=O)N2c3ccccc3C(=O)Nc3cccnc32)CC1", "note": "[pirenzepine, 5,11-dihydro-11-[(4-methyl-1-piperazinyl)-acetyl]-6H-pyrido[2,3-b] [1,4] benzodiazepin-6-one]", "values": [{"measurement": "incompatibilities between pirenzepine and non-steroidal antiphlogistics", "setting": "combined administration", "value": "not observed any incompatibilities"}, {"measurement": "mucous membrane protection by single therapeutic doses at 12-hour intervals", "setting": "single therapeutic doses at 12-hour intervals", "value": "sufficient to assure round-the-clock mucous membrane protection"}]}]}
